Structures can show the parent of a compound that is named as a salt.
SMILES	melting point
CN1CCC(OC(c2cccc(F)c2)c2nc3ccccc3s2)CC1 (centres unmarked) (as salt: oxalate) [Example 5]	167 to 170 °C
Cc1cccc(C(OC2CCN(C)CC2)c2nc3ccccc3s2)c1 (centres unmarked) (as salt: oxalate) [Example 8, 2-[(1-methylpiperidin-4-yloxy)(m-tolyl)methyl]benzothiazole]	177 °C
CN1CCC(NC(c2cccc(OCc3cccc(F)c3)c2)c2nc3ccccc3[nH]2)CC1 (centres unmarked) (as salt: oxalate) [Example 105, {(1H-benzimidazol-2-yl)[3-(3-fluorobenzyloxy)phenyl]methyl}(1-methylpiperidin-4-yl)amine]	116 °C
CN1CCC(OC(c2cccc(-c3ccccc3Cl)c2)c2nc3ccccc3[nH]2)CC1 (centres unmarked) (as salt: oxalate) [Example 121, 2-[(2′-Chlorobiphenyl-3-yl)(1-methylpiperidin-4-yloxy)methyl]-1H-benzimidazole]	130 °C
CN1CCC(OC(c2cccc(-c3cccc(F)c3)c2)c2nc3ccccc3[nH]2)CC1 (centres unmarked) (as salt: oxalate) [Example 109, 2-[(3′-fluoro-biphenyl-3-yl)(1-methylpiperidin-4-yloxy)methyl]-1H-benzimidazole]	120 °C
CN1CCC(NC(c2cc3ccccc3o2)c2nc3ccccc3s2)CC1 (centres unmarked) (as salt: oxalate) [Example 37, [(benzofuran-2-yl)(benzothiazol-2-yl)methyl](1-methylpiperidin-4-yl)amine]	125 °C
COc1cccc(COc2cccc(C(NC3CCN(C)CC3)c3nc4ccccc4[nH]3)c2)c1 (centres unmarked) (as salt: oxalate) [Example 125, {(1H-benzimidazol-2-yl)[3-(3-methoxybenzyloxy)phenyl]methyl}(1-methylpiperidin-4-yl)amine]	135 °C
COCCOc1cccc(C(OC2CCN(C)CC2)c2nc3ccccc3s2)c1 (centres unmarked) (as salt: oxalate) [Example 277, 2-[[3-(2-methoxyethoxy)phenyl](1-methylpiperidin-4-yloxy)methyl]benzothiazole]	80 °C
C=CCOc1cccc(C(NC2CCN(C)CC2)c2nc3ccccc3[nH]2)c1 (centres unmarked) (as salt: oxalate) [Example 112, [(3-allyloxyphenyl)(1H-benzimidazol-2-yl)methyl](1-methylpiperidin-4-yl)amine]	125 °C
CN1CCC(OC(c2cccc(C#N)c2)c2nc3ccccc3s2)CC1 (centres unmarked) (as salt: oxalate) [Example 197, 3-[benzothiazol-2-yl(1-methylpiperidin-4-yloxy)methyl]benzonitrile]	75 °C
CN1CCC(NC(c2cccc(F)c2)c2nc3ccccc3[nH]2)CC1 (centres unmarked) (as salt: oxalate) [Example 74, [(1H-benzimidazol-2-yl)(3-fluorophenyl)methyl](1-methylpiperidin-4-yl)amine]	155 °C
CN1CCC(NC(c2cccc(OCc3ccccc3F)c2)c2nc3ccccc3[nH]2)CC1 (centres unmarked) (as salt: oxalate) [Example 113, {(1H-benzimidazol-2-yl)[3-(2-fluorobenzyloxy)phenyl]methyl}(1-methylpiperidin-4-yl)amine]	118 °C
CN1CCC(NC(c2cccc(OCc3ccc(F)cc3)c2)c2nc3ccccc3[nH]2)CC1 (centres unmarked) (as salt: oxalate) [Example 103, {(1H-benzimidazol-2-yl)[3-(4-fluorobenzyloxy)phenyl]methyl}(1-methylpiperidin-4-yl)amine]	140 °C
CN1CCC(OC(c2cccc(Cl)c2)c2nc3ccccc3[nH]2)CC1 (centres unmarked) (as salt: oxalate) [Example 225, 2-[(3-chlorophenyl)(1-methylpiperidin-4-yloxy)methyl]-1H-benzimidazole]	158 °C
CN1CCC(OC(c2cccc(OCCCCN3CCOCC3)c2)c2nc3ccccc3s2)CC1 (centres unmarked) (as salt: oxalate) [Example 322, 2-{(1-methylpiperidin-4-yloxy)[3-(4-morpholin-4-yl-butoxy)phenyl]methyl}benzothiazole]	61 °C
COc1cc(F)cc(C(NC2CCN(C)CC2)c2nc3ccccc3s2)c1 (centres unmarked) (as salt: oxalate) [Example 43, [benzothiazol-2-yl(3-fluoro-5-methoxyphenyl)methyl](1-methylpiperidin-4-yl)amine]	157 °C
CN1CCC(OC(c2cccc(OCCCF)c2)c2nc3ccccc3s2)CC1 (centres unmarked) (as salt: oxalate) [Example 176, 2-[[3-(3-fluoropropoxy)phenyl](1-methylpiperidin-4-yloxy)methyl]benzothiazole]	72 °C
CCCCCOc1cccc(C(NC2CCN(C)CC2)c2nc3ccccc3[nH]2)c1 (centres unmarked) (as salt: oxalate) [Example 95, [(1H-benzimidazol-2-yl)(3-pentyloxyphenyl)methyl](1-methylpiperidin-4-yl)amine]	128 °C
CN1CCC(OC(c2cccc(Oc3ccccc3)c2)c2nc3ccccc3s2)CC1 (centres unmarked) (as salt: oxalate) [Example 28, 2-[(1-methylpiperidin-4-yloxy)(3-phenoxy-phenyl)methyl]benzothiazole]	92 °C

Other lines, results leading:

melting point	SMILES
135 °C	CN1CCC(OC(c2nc3ccccc3[nH]2)c2cc(O)ccc2F)CC1 (centres unmarked) (as salt: oxalate) [Example 487]
125 °C	CN1CCC(OC(c2cccc(C=CCCCO)c2)c2nc3ccccc3[nH]2)CC1 (centres unmarked) (as salt: oxalate) [Example 389, 5-{3-[(1H-benzimidazol-2-yl)(1-methylpiperidin-4-yloxy)methyl]phenyl}pent-4-en-1-ol]
85 °C	CN1CCC(OC(c2cccc(SCCN)c2)c2nc3cc(F)ccc3[nH]2)CC1 (centres unmarked) (as salt: oxalate) [Example 428, 2-{3-[(5-fluoro-1H-benzimidazol-2-yl)(1-methylpiperidin-4-yloxy)methyl]phenylsulfanyl}ethylamine]
90 °C	CN1CCC(OC(c2cccc(OCC3CCNCC3)c2)c2nc3ccccc3s2)CC1 (centres unmarked) (as salt: oxalate) [Example 377, 2-{(1-methylpiperidin-4-yloxy)[3-(piperidin-4-ylmethoxy)phenyl]methyl}benzothiazole]
120 °C	CN1CCC(OC(c2cccc(CCCCNC(=N)N)c2)c2nc3ccccc3s2)CC1 (centres unmarked) (as salt: hydrochloride) [Example 374, N-(4-{3-[benzothiazol-2-yl(1-methylpiperidin-4-yloxy)methyl]phenyl}butyl)guanidine]
70 °C	CN1CCC(OC(c2cccc(N3CCC(F)C3)c2)c2nc3ccccc3s2)CC1 (centres unmarked) (as salt: oxalate) [Example 430, 2-[[3-(3-fluoropyrrolidin-1-yl)phenyl](1-methylpiperidin-4-yloxy)methyl]benzothiazole]
120 °C	CN1CCC(OC(c2cccc(OCCCN)c2)c2nc3ccccc3s2)CC1 (centres unmarked) (as salt: oxalate) [Example 311, 3-{3-[benzothiazol-2-yl(1-methylpiperidin-4-yloxy)methyl]phenoxy}propylamine]
55 °C	CN1CCC(OC(c2cccc(OCC3CCCNC3)c2)c2nc3ccccc3s2)CC1 (centres unmarked) (as salt: oxalate) [Example 378, 2-{(1-methylpiperidin-4-yloxy)[3-(piperidin-3-ylmethoxy)phenyl]methyl}benzothiazole]
185 °C	CN1CCC(OC(c2cccc(C#CCCCCNC(=N)N)c2)c2nc3ccccc3s2)CC1 (centres unmarked) (as salt: hydrochloride) [Example 342, N-(6-{3-[benzothiazol-2-yl(1-methylpiperidin-4-yloxy)methyl]phenyl}hex-5-ynyl)guanidine]
74 °C	CN1CCC(OC(c2cccc(OCCCn3nccn3)c2)c2nc3ccccc3s2)CC1 (centres unmarked) (as salt: oxalate) [Example 349, 2-{(1-methylpiperidin-4-yloxy)[3-(3-[1,2,3]triazol-2-yl-propoxy)phenyl]methyl}benzothiazole]
132 °C	Cc1ccc(F)c(C(OC2CCN(C)CC2)c2nc3ccccc3[nH]2)c1 (centres unmarked) (as salt: oxalate) [Example 490]
140 °C	CN1CCC(OC(c2cccc(OCCCN3CCN(C(=O)OC(C)(C)C)CC3)c2)c2nc3ccccc3[nH]2)CC1 (centres unmarked) (as salt: oxalate) [Example 360, 4-(3-{3-[(1H-benzimidazol-2-yl)(1-methylpiperidin-4-yloxy)methyl]phenoxy}propyl)piperazine-1-carboxylic acid tert-butyl ester]
106 °C	CN1CCC(OC(c2cccc(OCCCF)c2)c2nc3ccccc3[nH]2)CC1 (centres unmarked) (as salt: oxalate) [Example 475]
105 °C	CN1CCC(OC(c2cccc(OCCCN3CCOCC3)c2)c2nc3ccccc3s2)CC1 (centres unmarked) (as salt: oxalate) [Example 350, 2-{(1-methylpiperidin-4-yloxy)[3-(3-morpholin-4-yl-propoxy)phenyl]methyl}benzothiazole]
110 °C	CN1CCC(OC(c2cccc(N3CCC(O)CC3)c2)c2nc3ccccc3s2)CC1 (centres unmarked) (as salt: oxalate) [Example 411, 1-{3-[benzothiazol-2-yl(1-methylpiperidin-4-yloxy)methyl]phenyl}piperidin-4-ol]
111 °C	CN1CCC(OC(c2cccc(OCCCCCN)c2)c2nc3ccccc3[nH]2)CC1 (centres unmarked) (as salt: oxalate) [Example 400, 5-{3-[(1H-benzimidazol-2-yl)(1-methylpiperidin-4-yloxy)methyl]phenoxy}pentylamine]
110 °C	CN1CCC(OC(c2cccc(CCCCCN)c2)c2nc3ccccc3s2)CC1 (centres unmarked) (as salt: hydrochloride) [Example 289, 5-{3-[benzothiazol-2-yl(1-methylpiperidin-4-yloxy)methyl]phenyl}pentylamine]
101 °C	CN1CCC(OC(c2cccc(OCCCCCN3CCN(C(=O)OC(C)(C)C)CC3)c2)c2nc3ccccc3[nH]2)CC1 (centres unmarked) (as salt: oxalate) [Example 391, 4-(5-{3-[(1H-benzimidazol-2-yl)(1-methylpiperidin-4-yloxy)methyl]phenoxy}pentyl)piperazine-1-carboxylic acid tert-butyl ester]
109 °C	CN1CCC(OC(c2nc3ccccc3[nH]2)c2cc(OCCF)ccc2F)CC1 (centres unmarked) (as salt: oxalate) [Example 489]

— patent US8802664B2 (Bioproject, priority 2010, dated 2014)
